Measured values taken from the supplement of paper PMC10307832.

Experiments:
Assay in all cases: relative viability (nuclei count vs DMSO), 5 days (fraction); higher = more cells survive
R406 + Palbociclib = compound: COc1cc(Nc2ncc(F)c(Nc3ccc4c(n3)NC(=O)C(C)(C)O4)n2)cc(OC)c1OC [R406] + CC(=O)c1c(C)c2cnc(Nc3ccc(N4CCNCC4)cn3)nc2n(C2CCCC2)c1=O [Palbociclib] (partner 0.5 µM)
Method in brief: (§1)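 Values are medians from duplicate plates. Each reflects relative viability, defined as the nuclei count of treated wells over that of vehicle wells. Lung cancer cell lines in 1536-well plates were pin-tool dosed one day after seeding with one drug alone or with a fixed anchor-drug dose plus five library-drug doses (not always all listed) in √10 steps, then fixed, stained and imaged at 4× after 5 days.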

R406 + Luminespib = compound: COc1cc(Nc2ncc(F)c(Nc3ccc4c(n3)NC(=O)C(C)(C)O4)n2)cc(OC)c1OC [R406] + CCNC(=O)c1noc(-c2cc(C(C)C)c(O)cc2O)c1-c1ccc(CN2CCOCC2)cc1 [Luminespib] (partner 0.01 µM)
Method in brief: as §1

R406 + AZD7762 = compound: COc1cc(Nc2ncc(F)c(Nc3ccc4c(n3)NC(=O)C(C)(C)O4)n2)cc(OC)c1OC [R406] + NC(=O)Nc1cc(-c2cccc(F)c2)sc1C(=O)N[C@H]1CCCNC1 [AZD7762] (partner 0.2 µM)
Method in brief: as §1

Daporinad + Palbociclib = compound: O=C(/C=C/c1cccnc1)NCCCCC1CCN(C(=O)c2ccccc2)CC1 [Daporinad] + CC(=O)c1c(C)c2cnc(Nc3ccc(N4CCNCC4)cn3)nc2n(C2CCCC2)c1=O [Palbociclib] (partner 0.5 µM)
Method in brief: as §1

| Cell Line | relative viability (R406 + Palbociclib; first compound 0.08 µM) | relative viability (R406 + Palbociclib; first compound 0.253 µM) | relative viability (R406 + Palbociclib; first compound 0.8 µM) | relative viability (R406 + Palbociclib; first compound 2.53 µM) | relative viability (R406 + Palbociclib; first compound 8 µM) | relative viability (R406 + Luminespib; first compound 0.08 µM) | relative viability (R406 + Luminespib; first compound 0.253 µM) | relative viability (R406 + Luminespib; first compound 0.8 µM) | relative viability (R406 + Luminespib; first compound 2.53 µM) | relative viability (R406 + Luminespib; first compound 8 µM) | relative viability (R406 + AZD7762; first compound 0.08 µM) | relative viability (R406 + AZD7762; first compound 0.253 µM) | relative viability (R406 + AZD7762; first compound 0.8 µM) | relative viability (R406 + AZD7762; first compound 2.53 µM) | relative viability (R406 + AZD7762; first compound 8 µM) | relative viability (Daporinad + Palbociclib; first compound 0.0005 µM) | relative viability (Daporinad + Palbociclib; first compound 0.001581 µM) | relative viability (Daporinad + Palbociclib; first compound 0.005 µM) | relative viability (Daporinad + Palbociclib; first compound 0.01581 µM) |
| --- | --- | --- | --- | --- | --- | --- | --- | --- | --- | --- | --- | --- | --- | --- | --- | --- | --- | --- | --- |
| NCI-H522 | 1.11 | 0.916 | 0.969 | 0.899 | 0.719 | 1.09 | 1.31 | 1.32 | 0.841 | 1.04 | 0.914 | 0.921 | 0.813 | 0.823 | 0.765 | 1.06 | 1.06 | 0.746 | 0.908 |
| NCI-H650 | 0.34 | 0.412 | 0.322 | 0.289 | 0.253 | 0.81 | 0.878 | 0.879 | 0.294 | 0.487 | 0.822 | 1.16 | 1.02 | 0.593 | 0.788 | 0.351 | 0.423 | 0.329 | 0.367 |
| NCI-H2170 | 0.379 | 0.393 | 0.452 | 0.264 | 0.419 | 0.641 | 0.622 | 0.856 | 0.366 | 0.574 | 0.81 | 0.766 | 0.948 | 0.596 | 0.708 | 0.351 | 0.39 | 0.394 | 0.381 |
| NCI-H1793 | 0.352 | 0.309 | 0.253 | 0.28 | 0.153 | 0.145 | 0.148 | 0.18 | 0.128 | 0.136 | 0.471 | 0.368 | 0.415 | 0.283 | 0.413 | 0.305 | 0.33 | 0.346 | 0.332 |
| NCI-H2085 | 0.468 | 0.459 | 0.45 | 0.455 | 0.36 | 0.437 | 0.353 | 0.525 | 0.319 | 0.279 | 1.03 | 1 | 1.02 | 0.72 | 0.726 | 0.41 |  | 0.512 | 0.533 |
| NCI-H838 | 0.227 | 0.236 | 0.247 | 0.179 | 0.107 | 0.277 | 0.319 | 0.176 | 0.234 | 0.236 | 0.915 | 1.02 | 1.04 | 0.853 | 0.741 | 0.254 | 0.258 | 0.29 | 0.199 |
| NCI-H460 | 0.157 | 0.2 | 0.183 | 0.0283 | 0.0792 | 0.0325 | 0.0281 | 0.0243 | 0.023 | 0.0248 | 0.651 | 0.829 | 0.69 | 0.61 | 0.762 | 0.153 | 0.191 | 0.236 | 0.169 |
| LOU-NH91 | 0.532 | 0.547 | 0.499 | 0.552 | 0.538 | 0.329 | 0.357 | 0.278 | 0.297 | 0.272 | 0.718 | 0.769 | 0.706 | 0.574 | 0.473 | 0.442 | 0.519 | 0.548 | 0.509 |
| NCI-H3122 | 0.18 | 0.184 | 0.178 | 0.237 | 0.238 | 0.114 | 0.116 | 0.132 |  | 0.0937 | 1.06 | 1.04 | 0.969 | 0.804 | 0.924 | 0.168 | 0.205 | 0.192 | 0.177 |
| NCI-H727 | 0.621 | 0.702 | 0.752 | 0.652 | 0.609 | 0.351 | 0.521 | 0.345 |  | 0.323 | 0.675 | 0.666 | 0.535 | 0.681 | 0.747 | 0.694 | 0.622 | 0.647 | 0.646 |
| NCI-H1734 | 0.359 | 0.372 | 0.376 | 0.346 | 0.243 | 0.196 | 0.193 | 0.207 | 0.189 | 0.16 | 0.58 | 0.582 | 0.679 | 0.228 | 0.313 | 0.361 | 0.404 | 0.356 | 0.328 |
| LXF-289 | 0.589 | 0.621 | 0.623 | 0.596 | 0.596 | 0.629 | 0.733 | 0.713 | 0.447 | 0.405 | 1.03 | 1.19 | 1.11 | 0.88 | 0.762 | 0.59 | 0.633 | 0.6 | 0.602 |
| H3255 | 0.295 | 0.331 | 0.336 | 0.358 | 0.284 | 1.04 |  | 0.827 | 0.69 | 0.731 | 0.923 | 0.983 | 0.823 | 0.774 | 0.747 | 0.308 | 0.322 | 0.344 | 0.33 |
| 201T | 0.375 | 0.399 | 0.349 | 0.394 | 0.285 | 1.08 | 1.06 | 1.07 | 1 | 0.655 | 0.615 | 0.685 | 0.664 | 0.762 | 0.836 | 0.379 | 0.347 | 0.329 | 0.375 |
| NCI-H2126 | 0.347 | 0.357 | 0.313 | 0.349 | 0.276 | 0.826 | 0.868 | 0.796 | 0.597 | 0.437 | 0.937 | 1.12 | 1.08 | 0.909 | 0.858 | 0.358 | 0.32 | 0.356 | 0.36 |
| HOP-62 | 0.426 | 0.533 | 0.397 | 0.456 | 0.378 | 0.858 | 1.01 | 0.901 | 0.95 | 0.947 | 0.76 | 0.813 | 0.793 | 0.531 | 0.585 | 0.399 | 0.437 | 0.479 | 0.423 |
| CAL-12T | 0.425 | 0.612 | 0.549 | 0.142 | 0.158 | 0.57 | 0.516 | 0.52 | 0.124 | 0.138 | 0.531 | 0.641 | 0.695 | 0.714 | 0.637 | 0.332 | 0.445 | 0.342 | 0.143 |
